Where a name gives a salt, the structure may show the parent alone. Read-outs that look alike come from different tables or passages of the source.

Common to all, as to assay type: biochemical
Test [1] concerns the target T1, recombinant human MAO-B (monoamine oxidase-B) (Homo sapiens, UniProt P27338).
T1 construct: purchased Sigma-Aldrich
T1 sequence (P27338 1-520): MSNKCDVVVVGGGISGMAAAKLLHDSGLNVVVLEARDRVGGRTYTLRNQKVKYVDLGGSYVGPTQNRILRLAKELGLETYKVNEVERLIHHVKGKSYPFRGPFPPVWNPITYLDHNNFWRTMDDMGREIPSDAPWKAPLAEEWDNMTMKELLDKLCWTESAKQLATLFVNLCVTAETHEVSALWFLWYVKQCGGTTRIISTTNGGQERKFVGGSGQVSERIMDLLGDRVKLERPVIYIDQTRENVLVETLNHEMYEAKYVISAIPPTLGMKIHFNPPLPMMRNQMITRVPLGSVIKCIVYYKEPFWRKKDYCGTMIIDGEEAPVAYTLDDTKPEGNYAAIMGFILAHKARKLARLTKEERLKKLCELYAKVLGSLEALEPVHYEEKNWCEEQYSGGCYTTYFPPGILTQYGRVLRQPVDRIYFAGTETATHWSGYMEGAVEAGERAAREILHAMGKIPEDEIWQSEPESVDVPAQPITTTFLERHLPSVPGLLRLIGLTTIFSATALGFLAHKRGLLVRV
The test is described as follows: Activity evaluation on recombinant human MAO-B (Amplex Red/HRP-coupled assay, 1 mM benzylamine substrate). The note with it: read-out: Inhibitory Activity (IC50, nM) MAO-B. The method, then:
(§1) The compounds according to the present technology were evaluated in terms of activity on recombinant human VAP-1 (R&D systems) by measuring the level of hydrogen peroxide in horseradish peroxidase (HRP)-coupled reaction using Amplex Red Hydrogen Peroxide Assay Kit (Molecular Probes, Invitrogen, USA). The experiment was carried out at room temperature using benzylamine as a substrate. In the HRP-coupled reaction, hydrogen peroxide oxidation of 10-acetyl-3,7-dihydroxyphenoxazine (Amplex Red reagent) produces resorufin, which is a highly fluorescent compound. Briefly, the test compound was dissolved in dimethyl sulfoxide (DMSO) at a concentration of 20 mM. The dose-response assessment was made by 1:3 serial dilution in DMSO, thereby creating a 8 point curve. The concentration of the upper part was controlled according to the efficacy of the compounds, followed by the dilution with a reaction buffer solution to obtain a final DMSO concentration of less than 1%. To each well of a 96 black well plate, human VAP-1 purified in 50 mM sodium phosphate buffer solution (pH7.4) was added. The test compounds dissolved in DMSO were incubated with the human VAP-1 enzymes at 37° C. for 30 minutes. After 30-minute incubation, each well was added with a reaction mixture containing 200 uM Amplex Red reagent prepared from 50 mM sodium phosphate buffer solution (pH 7.4), 1 mM benzylamine, and 1 U/mL HRP. Fluorescence intensity was measured at several time points during 1-2 hours using a microplate reader (Flexstation3, Molecular Devices) under the wavelength condition exciting at 544 nm and reading the emission at 590 nm. The inhibitory effect of the compounds was measured as a decrease (%) in the signal rate as compared to the control group without any inhibitor (only diluted DMSO). Data was fixed to a logistic model with four variables and IC50 value was calculated using GraphPad Prism program.
(§2) In addition, the compounds according to the present technology were evaluated in terms of activity on a recombinant human MAO-A (monoamine oxidase-A, Sigma-Aldrich) and a recombinant human MAO-B (monoamine oxidase-B, Sigma-Aldrich) by using as substrates, 0.5 mM tyramine and 1 mM benzylamine, respectively, with a method similar to the activity evaluation method for recombinant human VAP-1. The compounds according to the present technology were also evaluated in terms of activity on a recombinant human DAO (diamine oxidase, R&D systems) by using as a substrate 1 mM putrescine with a method similar to the activity evaluation method for recombinant human VAP-1.

Test [2] deals with T2, recombinant human MAO-A (monoamine oxidase-A) (Homo sapiens, UniProt P21397).
T2 construct: purchased Sigma-Aldrich
T2 sequence (P21397 1-527): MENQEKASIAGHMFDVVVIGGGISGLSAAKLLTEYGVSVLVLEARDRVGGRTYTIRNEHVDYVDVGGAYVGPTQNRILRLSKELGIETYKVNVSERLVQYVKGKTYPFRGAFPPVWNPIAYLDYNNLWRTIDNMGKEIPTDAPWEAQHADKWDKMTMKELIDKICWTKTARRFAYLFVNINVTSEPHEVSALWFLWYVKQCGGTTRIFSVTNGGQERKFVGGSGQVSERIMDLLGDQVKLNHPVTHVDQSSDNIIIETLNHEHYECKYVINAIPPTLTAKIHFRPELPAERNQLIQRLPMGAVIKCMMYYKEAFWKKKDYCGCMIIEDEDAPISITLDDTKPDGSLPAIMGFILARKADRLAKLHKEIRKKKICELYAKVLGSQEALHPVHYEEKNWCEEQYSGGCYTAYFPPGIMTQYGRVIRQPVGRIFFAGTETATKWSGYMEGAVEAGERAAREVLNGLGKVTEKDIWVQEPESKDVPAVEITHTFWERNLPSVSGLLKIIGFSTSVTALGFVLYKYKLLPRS
The test can be described thus: Activity evaluation on recombinant human MAO-A (Amplex Red/HRP-coupled assay, 0.5 mM tyramine substrate). The note with it: read-out: Inhibitory Activity (IC50, nM) MAO-A. As to the method:
as §1, §2

The target in test [3] is T3, recombinant human DAO (diamine oxidase) (Homo sapiens, UniProt P19801).
T3 construct: purchased R&D systems
T3 sequence (P19801 20-751): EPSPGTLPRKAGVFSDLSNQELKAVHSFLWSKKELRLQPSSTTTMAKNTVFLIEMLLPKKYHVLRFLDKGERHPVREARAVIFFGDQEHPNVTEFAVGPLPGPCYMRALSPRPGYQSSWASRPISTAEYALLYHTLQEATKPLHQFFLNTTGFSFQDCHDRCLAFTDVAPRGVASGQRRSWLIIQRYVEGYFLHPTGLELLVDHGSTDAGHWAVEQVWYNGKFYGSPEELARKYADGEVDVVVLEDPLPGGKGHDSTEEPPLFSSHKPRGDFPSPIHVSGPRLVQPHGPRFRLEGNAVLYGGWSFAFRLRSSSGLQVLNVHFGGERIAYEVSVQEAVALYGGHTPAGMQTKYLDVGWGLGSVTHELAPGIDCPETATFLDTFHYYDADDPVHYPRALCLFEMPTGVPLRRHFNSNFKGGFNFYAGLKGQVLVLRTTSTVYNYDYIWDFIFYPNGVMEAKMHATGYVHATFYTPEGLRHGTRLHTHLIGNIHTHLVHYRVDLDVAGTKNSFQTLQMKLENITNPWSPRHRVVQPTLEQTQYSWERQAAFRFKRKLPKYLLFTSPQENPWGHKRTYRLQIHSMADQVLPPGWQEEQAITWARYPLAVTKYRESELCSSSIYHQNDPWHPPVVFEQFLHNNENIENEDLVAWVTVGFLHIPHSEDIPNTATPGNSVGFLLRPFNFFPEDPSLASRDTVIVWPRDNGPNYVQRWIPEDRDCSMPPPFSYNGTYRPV
The test is described as follows: Activity evaluation on recombinant human DAO (Amplex Red/HRP-coupled assay, 1 mM putrescine substrate). The note with it: read-out: Inhibitory Activity (IC50, nM) DAO. The method, then:
as §1, §2

In a further test the target is T4, recombinant human VAP-1 (Homo sapiens, UniProt Q16853).
T4 construct: purchased R&D systems
T4 sequence (Q16853 1-763): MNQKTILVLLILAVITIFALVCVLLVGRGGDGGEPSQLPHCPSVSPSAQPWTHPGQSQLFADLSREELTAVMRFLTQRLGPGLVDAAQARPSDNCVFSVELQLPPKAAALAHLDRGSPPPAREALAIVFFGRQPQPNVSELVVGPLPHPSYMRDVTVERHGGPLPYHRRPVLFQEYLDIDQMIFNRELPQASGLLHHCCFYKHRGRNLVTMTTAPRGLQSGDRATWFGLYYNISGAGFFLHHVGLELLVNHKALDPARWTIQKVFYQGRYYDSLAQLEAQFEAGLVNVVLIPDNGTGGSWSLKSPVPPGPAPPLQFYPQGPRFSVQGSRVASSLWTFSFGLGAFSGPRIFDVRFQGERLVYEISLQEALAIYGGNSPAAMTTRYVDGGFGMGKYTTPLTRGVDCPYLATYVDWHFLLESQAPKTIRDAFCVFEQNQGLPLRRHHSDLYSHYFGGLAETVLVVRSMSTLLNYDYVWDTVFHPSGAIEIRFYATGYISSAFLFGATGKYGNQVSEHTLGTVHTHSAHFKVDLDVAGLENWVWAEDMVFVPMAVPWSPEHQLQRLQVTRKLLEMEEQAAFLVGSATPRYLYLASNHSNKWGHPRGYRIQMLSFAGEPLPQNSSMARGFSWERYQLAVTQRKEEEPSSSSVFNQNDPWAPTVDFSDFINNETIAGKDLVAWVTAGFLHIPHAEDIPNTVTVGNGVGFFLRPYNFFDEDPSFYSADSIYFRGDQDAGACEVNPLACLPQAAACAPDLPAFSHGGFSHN
The test is described as follows: Activity evaluation on recombinant human VAP-1 (Amplex Red/HRP-coupled hydrogen peroxide assay, benzylamine substrate). The note with it: read-out: Inhibitory Activity (IC50, nM) human VAP-1. The method, then:
as §1

The mark [4] stands for this setting: recombinant human VAP-1, 30 min preincubation at 37° C., 1 mM benzylamine.
[5] abbreviates: recombinant human VAP-1, benzylamine substrate.

One may read the IC50 as the concentration needed to halve the response being measured. For `CCn1cc(-c2cnc(-n3cnn(CC(CN)=C(F)F)c3=O)c(F)c2)cn1` [Example 88, 2-[2-(aminomethyl)-3,3-difluoro-allyl]-4-[5-(1-ethylpyrazol-4-yl)-3-fluoro-2-pyridyl]-1,2,4-triazol-3-one Trifluoroacetate], the IC50 was 8200 nM in test [1] (1 mM benzylamine), greater than 100000 nM in test [2] (0.5 mM tyramine), 230 nM in test [3] (1 mM putrescine) and 0.3 nM at recombinant human VAP-1 (setting [4]).

For the compound `CN(C)C(=O)c1cccc(-c2ccc(Cn3cnn(CC(CN)=C(F)F)c3=O)s2)c1` [Example 181, 3-[5-[[1-[2-(aminomethyl)-3,3-difluoro-allyl]-5-oxo-1,2,4-triazol-4-yl]methyl]-2-thienyl]-N,N-dimethyl-benzamide trifluoroacetate], the IC50 is greater than 100000 nM in test [1] (1 mM benzylamine substrate), greater than 100000 nM in test [2] (0.5 mM tyramine substrate), greater than 10000 nM in test [3] (1 mM putrescine substrate) and 2.3 nM on recombinant human VAP-1 (setting [5]).

Take `Cc1cc(-c2ccc(S(C)(=O)=O)cc2)cnc1-n1cnn(CC(CN)=C(F)F)c1=O` [Example 68, 2-[2-(aminomethyl)-3,3-difluoro-allyl]-4-[3-methyl-5-(4-methylsulfonylphenyl)-2-pyridyl]-1,2,4-triazol-3-one Trifluoroacetate]: the IC50 is 55000 nM in test [1] (1 mM benzylamine), greater than 100000 nM in test [2] (0.5 mM tyramine), 2100 nM in test [3] (1 mM putrescine) and 0.5 nM at recombinant human VAP-1 (setting [4]).

Regarding `CS(=O)(=O)c1ccc(-c2ccc(-n3cnn(CC(CN)=C(F)F)c3=O)cc2F)cc1` [Example 24, 2-[2-(aminomethyl)-3,3-difluoro-allyl]-4-[3-fluoro-4-(4-methylsulfonylphenyl)phenyl]-1,2,4-triazol-3-one Trifluoroacetate], the IC50 in test [1] (1 mM benzylamine) was 3300 nM; in test [2] (0.5 mM tyramine), greater than 100000 nM; in test [3] (1 mM putrescine), 600 nM; at recombinant human VAP-1 (setting [4]), 2.7 nM.

`Cn1cc(-c2csc(Cn3cnn(CC(CN)=C(F)F)c3=O)c2)ccc1=O` [Example 190, 5-[5-[[1-[2-(aminomethyl)-3,3-difluoro-allyl]-5-oxo-1,2,4-triazol-4-yl]methyl]-3-thienyl]-1-methyl-pyridin-2-one Trifluoroacetate]: the IC50 in test [1] (1 mM benzylamine substrate) is greater than 100000 nM; in test [2] (0.5 mM tyramine substrate) it was greater than 100000 nM; in test [3] (1 mM putrescine substrate) it was 63000 nM; at recombinant human VAP-1 (setting [5]) it was 1.4 nM.

For `Cn1cc(C#Cc2ccc(Cn3cnn(CC(CN)=C(F)F)c3=O)s2)cn1` [Example 171, 2-[2-(aminomethyl)-3,3-difluoro-allyl]-4-[[5-[2-(1-methylpyrazol-4-yl)ethynyl]-2-thienyl]methyl]-1,2,4-triazol-3-one Trifluoroacetate], the IC50 in test [1] (1 mM benzylamine) is 50000 nM; in test [2] (0.5 mM tyramine) it was greater than 100000 nM; in test [3] (1 mM putrescine), greater than 100000 nM; on recombinant human VAP-1 (setting [4]) it was 1.8 nM.

As to `CN(C)c1ncc(-c2ccc(Cn3cnn(CC(CN)=C(F)F)c3=O)s2)cc1F` [Example 115, 2-[2-(aminomethyl)-3,3-difluoro-allyl]-4-[[5-[6-(dimethylamino)-5-fluoro-3-pyridyl]-2-thienyl]methyl]-1,2,4-triazol-3-one Trifluoroacetate], the IC50 is greater than 100000 nM in test [2] (0.5 mM tyramine), 11000 nM in test [3] (1 mM putrescine) and 0.8 nM on recombinant human VAP-1 (setting [4]).

As for `NCC(Cn1ncn(-c2ccc(Br)nc2)c1=O)=C(F)F` [Example 7, 2-[2-(aminomethyl)-3,3-difluoro-allyl]-4-(6-bromo-3-pyridyl)-1,2,4-triazol-3-one Trifluoroacetate], the concentration for half-maximal inhibition (IC50) in test [1] (1 mM benzylamine) was 6100 nM; in test [2] (0.5 mM tyramine), greater than 100000 nM; at recombinant human VAP-1 (setting [4]), 9.4 nM.

Take `CN(C)c1ccc(C#Cc2ccc(Cn3cnn(CC(CN)=C(F)F)c3=O)s2)cn1` [Example 162, 2-[2-(aminomethyl)-3,3-difluoro-allyl]-4-[[5-[2-[6-(dimethylamino)-3-pyridyl]ethynyl]-2-thienyl]methyl]-1,2,4-triazol-3-one Trifluoroacetate]: the IC50 in test [2] (0.5 mM tyramine) is greater than 10000 nM; in test [3] (1 mM putrescine), greater than 10000 nM; on recombinant human VAP-1 (setting [4]), 0.7 nM.

The values above are taken from patent US11168073B2, “3,3-difluoroallylamines or salts thereof and pharmaceutical compositions comprising the same” (YUHAN CORPORATION, priority 2018, dated 2021).
